Measurements published in PubChem BioAssay (NCI).
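The compound was tested at five concentrations on cells cultured in 96-well plates, with a 48-hour exposure period. Abbreviation: GI50, concentration required for 50% inhibition of growth. TGI denotes the concentration required for complete inhibition of growth.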

Columns and labels:
Assay in all cases: NCI tumour cell line growth inhibition, 48 h
OVCAR-4 ovarian = tested on: OVCAR-4 ovarian
NCI/ADR-RES ovarian = tested on: NCI/ADR-RES ovarian
OVCAR-3 ovarian = tested on: OVCAR-3 ovarian
PC-3 prostate = tested on: PC-3 prostate
ACHN renal = tested on: ACHN renal
RXF 393 renal = tested on: RXF 393 renal
SW-620 colon = tested on: SW-620 colon
SNB-19 CNS = tested on: SNB-19 CNS
HCT-15 colon = tested on: HCT-15 colon
K-562 leukemia = tested on: K-562 leukemia

SMILES	TGI (OVCAR-4 ovarian)	TGI (NCI/ADR-RES ovarian)	TGI (OVCAR-3 ovarian)	TGI (PC-3 prostate)	TGI (ACHN renal)	TGI (RXF 393 renal)	TGI (SW-620 colon)	TGI (SNB-19 CNS)	TGI (HCT-15 colon)	TGI (K-562 leukemia)	GI50 (OVCAR-4 ovarian)	GI50 (NCI/ADR-RES ovarian)	GI50 (OVCAR-3 ovarian)	GI50 (PC-3 prostate)	GI50 (ACHN renal)	GI50 (RXF 393 renal)	GI50 (SW-620 colon)	GI50 (SNB-19 CNS)	GI50 (HCT-15 colon)	GI50 (K-562 leukemia)
Brc1ccc2c([C@H]3CN[C@@H](c4c[nH]c5cc(Br)ccc45)CN3)c[nH]c2c1	4.69 µM	17.1 µM	3.94 µM	15.2 µM	9.87 µM	6.6 µM	3.28 µM	21.8 µM	11.2 µM	4.02 µM	–	–	–	–	–	–	–	–	–	–
N=C(N)SCc1ccc(Cl)cc1Cl (tested in a mixture with another compound)	38.8 µM	73.9 µM	28.1 µM	24.6 µM	23.1 µM	27.9 µM	37.6 µM	47.6 µM	35.1 µM	25.5 µM	–	–	–	–	–	–	–	–	–	–
Cc1ccc(-n2[nH]nc(C#N)c2=O)cc1	> 100 µM	> 100 µM	> 100 µM	> 100 µM	> 100 µM	> 100 µM	> 100 µM	> 100 µM	> 100 µM	> 100 µM	–	–	–	–	–	–	–	–	–	–
O=C(Cc1nccc2c1[nH]c1ccccc12)OC1C#CCSCC#C/C=C\1 (stereo not given)	> 100 µM	> 100 µM	> 100 µM	> 100 µM	> 100 µM	> 100 µM	> 100 µM	> 100 µM	> 100 µM	> 100 µM	–	–	–	–	–	–	–	–	–	–
COc1ccc(/C=C2\CCC(CNc3ccc(OC)cc3)C2=O)cc1 (stereo not given)	45.7 µM	> 100 µM	31.6 µM	37 µM	58.6 µM	29.9 µM	12.9 µM	> 59.2 µM	20.4 µM	> 33.3 µM	–	–	–	–	–	–	–	–	–	–
Cc1cc(C)c2c(n1)S(=O)(=O)N(CCCN1CCN(c3cccc(C(F)(F)F)c3)CC1)c1c-2nn(C)c1C	> 100 µM	> 100 µM	> 100 µM	> 100 µM	> 100 µM	> 100 µM	> 100 µM	> 100 µM	> 100 µM	> 100 µM	–	–	–	–	–	–	–	–	–	–
CSc1c(C#N)c(N)nc2c(N=Nc3ccc(Cl)cc3)c(N)nn12	6.68 µM	39 µM	3.38 µM	7.38 µM	12.4 µM	5.79 µM	4.49 µM	40.7 µM	5.5 µM	4.75 µM	–	–	–	–	–	–	–	–	–	–
Cc1cc(Cc2c(F)c(F)c(C(c3cc(C)no3)c3c(F)c(F)c(F)c(F)c3F)c(F)c2F)on1 (stereo not given)	> 100 µM	> 100 µM	> 100 µM	> 100 µM	> 100 µM	8.08 µM	> 100 µM	> 100 µM	> 100 µM	> 100 µM	–	–	–	–	–	–	–	–	–	–
c1csc(-c2cc(-c3cccs3)c(-c3cccs3)s2)c1	> 100 µM	> 100 µM	> 100 µM	> 100 µM	> 100 µM	> 100 µM	> 100 µM	> 100 µM	> 100 µM	> 100 µM	–	–	–	–	–	–	–	–	–	–
N#C/C(=C\NC(=S)c1ccncc1)c1nc2ccccc2s1	> 100 µM	> 100 µM	> 100 µM	> 100 µM	> 100 µM	> 100 µM	> 100 µM	> 100 µM	> 100 µM	> 100 µM	–	–	–	–	–	–	–	–	–	–
CCOC(=O)C(C(=S)Nc1ccccc1)c1nn2c(=O)cc(C)nc2s1 (stereo not given)	> 100 µM	67.2 µM	63.2 µM	66.3 µM	66.6 µM	> 100 µM	> 100 µM	> 100 µM	85 µM	49 µM	–	–	–	–	–	–	–	–	–	–
O=c1[nH]c(Nc2cc(Cl)cc(Cl)c2)nc2nc[nH]c12	> 75 µM	> 75 µM	> 75 µM	> 75 µM	> 75 µM	> 75 µM	> 75 µM	> 75 µM	> 75 µM	> 75 µM	–	–	–	–	–	–	–	–	–	–
Cc1noc2nnn(-c3ccc(Cl)cc3)c(=O)c12	57.3 µM	29.8 µM	6.83 µM	19.2 µM	15.1 µM	4.79 µM	5.41 µM	26.1 µM	10.3 µM	11.2 µM	–	–	–	–	–	–	–	–	–	–
CCOC(=O)c1ccc(C(=O)/C(C(C)=O)=C2\CCCN2C)n1C	> 100 µM	> 100 µM	> 100 µM	> 100 µM	> 100 µM	> 100 µM	> 100 µM	> 100 µM	> 100 µM	> 100 µM	–	–	–	–	–	–	–	–	–	–
c1ccc2c(c1)ncn2C1CCCCO1 (stereo not given)	> 100 µM	> 100 µM	> 100 µM	> 100 µM	> 100 µM	> 100 µM	> 100 µM	> 100 µM	> 100 µM	> 100 µM	–	–	–	–	–	–	–	–	–	–
CSc1ccc(NC(=S)NN(C)C)cc1	> 10 µM	> 10 µM	> 10 µM	> 10 µM	> 10 µM	> 10 µM	> 10 µM	> 10 µM	> 10 µM	> 10 µM	–	–	–	–	–	–	–	–	–	–
CC(=C(C(N)=O)C(N)=O)C1C=C(c2cccs2)CC(c2ccc(Cl)cc2)=C1O (stereo not given)	78.8 µM	> 100 µM	> 100 µM	> 100 µM	> 100 µM	> 100 µM	> 100 µM	> 100 µM	> 100 µM	> 100 µM	–	–	–	–	–	–	–	–	–	–
CCCCN1C(=O)c2c(-c3sccc3N)sc(-c3sccc3N)c2C1=O	45.3 µM	> 83.2 µM	78.5 µM	> 100 µM	> 100 µM	41 µM	> 100 µM	44.2 µM	> 100 µM	> 100 µM	–	–	–	–	–	–	–	–	–	–

SMILES	TGI (OVCAR-4 ovarian)	TGI (NCI/ADR-RES ovarian)	TGI (OVCAR-3 ovarian)	TGI (PC-3 prostate)	TGI (ACHN renal)	TGI (RXF 393 renal)	TGI (SW-620 colon)	TGI (SNB-19 CNS)	TGI (HCT-15 colon)	TGI (K-562 leukemia)	GI50 (OVCAR-4 ovarian)	GI50 (NCI/ADR-RES ovarian)	GI50 (OVCAR-3 ovarian)	GI50 (PC-3 prostate)	GI50 (ACHN renal)	GI50 (RXF 393 renal)	GI50 (SW-620 colon)	GI50 (SNB-19 CNS)	GI50 (HCT-15 colon)	GI50 (K-562 leukemia)
O=C1/C(=C/c2ccc(Cl)cc2)N=C(c2ccccc2)N1CCc1cccs1	> 100 µM	> 100 µM	> 100 µM	> 100 µM	> 100 µM	> 100 µM	> 100 µM	> 100 µM	> 100 µM	> 100 µM	7.72 µM	23.7 µM	16.7 µM	13 µM	28.8 µM	23.3 µM	30.6 µM	29.4 µM	19.3 µM	22.9 µM
CC1OC2(CC(OCc3ccccc3)C1OCc1ccccc1)OCCO2 (stereo not given)	> 100 µM	> 100 µM	> 100 µM	> 100 µM	> 100 µM	74.4 µM	> 100 µM	> 100 µM	90.5 µM	> 100 µM	–	–	–	–	–	–	–	–	–	–
CSCCCNC(=O)c1csc(-c2csc(C(CNC(=O)OC(C)(C)C)CNC(=O)OC(C)(C)C)n2)n1	> 100 µM	> 100 µM	> 100 µM	> 100 µM	> 100 µM	> 100 µM	> 100 µM	> 100 µM	> 100 µM	> 100 µM	–	–	–	–	–	–	–	–	–	–
COC(=O)/C=C/c1ccc2c(c1)CC1(C2)Cc2cc3c(cc2C1=O)CCC3 (stereo not given)	> 100 µM	> 100 µM	43.7 µM	> 100 µM	> 100 µM	84.9 µM	> 100 µM	> 100 µM	> 100 µM	> 100 µM	–	–	–	–	–	–	–	–	–	–
CCCCCCCCCCCCOP(=O)(O)OCC(N)C(=O)O (stereo not given)	> 100 µM	> 100 µM	33.2 µM	35.1 µM	> 100 µM	> 100 µM	> 100 µM	44 µM	36.6 µM	> 100 µM	–	–	–	–	–	–	–	–	–	–
CCCCCCCCCCCCCC[S+](C)C	7.31 µM	> 10 µM	4.03 µM	2.98 µM	> 10 µM	2.72 µM	> 10 µM	2.84 µM	> 10 µM	4.68 µM	–	–	–	–	–	–	–	–	–	–
COC(=O)c1ccc(C)cc1/C=C1\Cc2ccc(C)cc2C1=O	46.1 µM	> 100 µM	31.2 µM	> 100 µM	> 100 µM	31.9 µM	51.3 µM	68.7 µM	43.1 µM	42.8 µM	–	–	–	–	–	–	–	–	–	–
CCn1cc(C(=O)O)c(=O)c2cc3c(cc21)S(=O)(=O)CC3	> 100 µM	> 100 µM	> 100 µM	> 100 µM	> 100 µM	> 100 µM	> 100 µM	> 100 µM	> 100 µM	> 100 µM	–	–	–	–	–	–	–	–	–	–
N#C/C(=C\c1cc(Cl)cc(Cl)c1)c1ccccn1	> 100 µM	> 100 µM	> 100 µM	> 100 µM	> 100 µM	47.2 µM	> 100 µM	> 100 µM	> 100 µM	> 100 µM	–	–	–	–	–	–	–	–	–	–
CC1OC(O[C@H]2C3C=CO[C@@H](OC4OC(CO)C(O)C(O)C4O)C3[C@@]3(COC(=O)/C=C/c4ccc(O)cc4)O[C@@H]23)C(O)C(O)C1O (stereo not given in full)	> 100 µM	> 100 µM	> 100 µM	> 100 µM	> 100 µM	> 100 µM	> 100 µM	> 100 µM	> 100 µM	> 100 µM	–	–	–	–	–	–	–	–	–	–
Nc1nc(Cl)cc(NCCC2(CO)CCC2)n1	> 100 µM	> 100 µM	> 100 µM	> 100 µM	> 100 µM	> 100 µM	> 100 µM	> 100 µM	> 100 µM	> 100 µM	–	–	–	–	–	–	–	–	–	–
N#CCCN(CCC#N)c1ccc(/C=C2\N=C(c3ccccc3)N(NC(N)=S)C2=O)cc1	> 100 µM	> 100 µM	> 100 µM	> 100 µM	> 100 µM	> 100 µM	> 100 µM	> 100 µM	> 100 µM	> 100 µM	–	–	–	–	–	–	–	–	–	–
COc1ccc(OC)c(CC2CCc3nc(N)nc(N)c3C2)c1 (stereo not given)	> 100 µM	> 32.4 µM	> 100 µM	52.7 µM	> 65.8 µM	4.37 µM	> 100 µM	> 81.8 µM	> 72.8 µM	> 100 µM	–	–	–	–	–	–	–	–	–	–
O=C(CCCCCCC(=O)Nc1cccnc1)NO	> 100 µM	10.1 µM	18.7 µM	> 100 µM	> 92.2 µM	31 µM	> 100 µM	> 100 µM	> 100 µM	> 100 µM	–	–	–	–	–	–	–	–	–	–
Cc1cc(C)nc(SC(C)C(=O)N/N=C/c2ccc(OCc3ccccc3)cc2)n1 (stereo not given)	> 100 µM	> 100 µM	> 100 µM	58.7 µM	> 100 µM	66.6 µM	> 100 µM	> 100 µM	> 100 µM	> 100 µM	–	–	–	–	–	–	–	–	–	–
C/C(=C/C(=O)Nn1c(Cc2ccccc2)n[nH]c1=O)C(=O)O	> 100 µM	> 100 µM	> 100 µM	> 100 µM	> 100 µM	> 100 µM	> 100 µM	> 100 µM	> 100 µM	> 100 µM	–	–	–	–	–	–	–	–	–	–
O=C(/C=C/c1cc(O)c(O)cc1O)OCCc1ccccc1	31.8 µM	71.2 µM	15.7 µM	34.2 µM	26.8 µM	> 31.1 µM	21.2 µM	> 100 µM	54.7 µM	6.89 µM	–	–	–	–	–	–	–	–	–	–
